Patent publication US20110015119A1, “NOVEL SEMI-SYNTHETIC GLYCOPEPTIDES AS ANTIBACTERIAL AGENTS” (LEAD THERAPEUTICS, INC., priority 2009, published 2011)
Converted amounts (≈) assume the structure as drawn. Like-named read-outs stand apart in the source and are kept apart here.

Experiments:
Type in all cases: cell-based
[1] = tested on: Staphylococcus epidermidis 835; assay: MIC by broth microdilution, SE 835
Procedure: (§1) Antibacterial activity in vitro is investigated by broth microdilution method in Meuller-Hinton broth as recommended by NCCLS. All strains tested are clinical isolates either sensitive or resistant to natural glycopeptides. MIC values were determined using the CLSI-recommended broth microdilution procedure (Clinical and Laboratory Standards Institute, Methods for Dilution Antimicrobial Susceptibility Tests for Bacteria That Grow Aerobically; Approved Standard-Seventh Edition.). Automated liquid handlers (Multidrop 384, Labsystems, Helsinki, Finland; Biomek 2000 and Multimek 96, Beckman Coulter, Fullerton Calif.) were used to conduct serial dilutions and liquid transfers. The MIC value for vancomycin is given for comparison. The abbreviations for organisms tested are as follow: SA 100—Staphylococcus aureus 100 (ATCC 29213); SA 757—Staphylococcus aureus 757 (MRSA); SA 2012—Staphylococcus aureus 2012 (VISA); SE 835—Staphylococcus epidermidis 835; SE 831—Staphylococcus epidermidis 831 (MRSE); EFc 101—Enterococcus faecalis 101 (ATCC 29212); EFc 848—Enterococcus faecalis 848 (VRE, Van A); EFcm 800—Enterococcus faecium 800; EFcm 752—Enterococcus faecium 752 (VRE, Van A); SPNE 1195—Streptococcus pneumoniae 1195 (ATCC 49619); SPY 712—Streptococcus pyogenes 712.

[2] = tested on: Staphylococcus aureus 100 (ATCC 29213); assay: MIC by broth microdilution, SA 100
Procedure: as §1

[3] = tested on: Staphylococcus aureus 757 (MRSA); assay: MIC by broth microdilution, SA 757; conditions: read-out: MIC SA 757
Procedure: as §1

[4] = tested on: Enterococcus faecalis 101 (ATCC 29212); assay: MIC by broth microdilution, EFc 101; conditions: class symbols
Procedure: as §1

[5] = tested on: Enterococcus faecium 800; assay: MIC by broth microdilution, EFcm 800
Procedure: as §1

[6] = tested on: Enterococcus faecalis 848 (VRE, Van A); assay: MIC by broth microdilution, EFc 848; conditions: class symbols
Procedure: as §1

[7] = tested on: Staphylococcus epidermidis 831 (MRSE); assay: MIC by broth microdilution, SE 831; conditions: read-out: MIC SE 831
Procedure: as §1

[8] = tested on: Streptococcus pyogenes 712; assay: MIC by broth microdilution, SPY 712
Procedure: as §1

[9] = tested on: Streptococcus pneumoniae 1195 (ATCC 49619); assay: MIC by broth microdilution, SPNE 1195
Procedure: as §1

[10] = tested on: Enterococcus faecium 752 (VRE, Van A); assay: MIC by broth microdilution, EFcm 752; conditions: class symbols
Procedure: as §1

[11] = tested on: Staphylococcus aureus 2012 (VISA); assay: MIC by broth microdilution, SA 2012; conditions: class symbols
Procedure: as §1

[12] = Staphylococcus epidermidis, 835, read-out: MIC SE 835
[13] = Staphylococcus aureus, ATCC29213, read-out: MIC SA 100
[14] = Enterococcus faecalis, ATCC29212, read-out: MIC E FC 101, Enterococcus faecalis 101 (ATCC 29212)
[15] = Enterococcus faecium, 800, read-out: MIC E FCM 800
[16] = Enterococcus faecalis, VRE, read-out: MIC E FC 848, Enterococcus faecalis 848 (VRE, Van A)
[17] = Staphylococcus epidermidis, MRSE
[18] = Streptococcus pyogenes, 712, read-out: MIC S PYO 712
[19] = Streptococcus pneumoniae, ATCC49619, read-out: MIC S PNE 1195
[20] = Enterococcus faecium, VRE, read-out: MIC E FCM 752, Enterococcus faecium 752 (VRE, Van A)
[21] = Staphylococcus aureus, VISA, read-out: MIC SA 2012, Staphylococcus aureus 2012 (VISA)

CCCCc1ccc(NC(=O)Oc2cc(O)c3c(c2)[C@@H](C(=O)NC2C4CC5CC(C4)CC2C5)NC(=O)[C@H]2NC(=O)[C@H](NC(=O)[C@@H]4NC(=O)[C@H](CC(N)=O)NC(=O)[C@H](NC(=O)[C@@H](CC(C)C)NC)[C@H](O)c5ccc(c(Cl)c5)Oc5cc4cc(c5O[C@@H]4O[C@H](CO)[C@@H](O)[C@H](O)[C@H]4O[C@H]4C[C@](C)(N)[C@H](O)[C@H](C)O4)Oc4ccc(cc4Cl)[C@H]2O)c2ccc(O)c-3c2)cc1 (some centres unmarked) [Compound 331]
MIC [1, 12]: 0.5 to 1 mg/L (≈ 0.284 to 0.569 µM) | MIC [2, 13]: 0.01 to 0.5 mg/L (≈ 0.00569 to 0.284 µM) | MIC ([3]; Staphylococcus aureus, MRSA): 0.01 to 0.5 mg/L (≈ 0.00569 to 0.284 µM) | MIC [4, 14]: 0.5 to 1 mg/L (≈ 0.284 to 0.569 µM) | MIC [5, 15]: 0.01 to 0.5 mg/L (≈ 0.00569 to 0.284 µM) | MIC [6, 16]: > 16 mg/L | MIC [7, 17]: 0.01 to 0.5 mg/L (≈ 0.00569 to 0.284 µM) | MIC [8, 18]: 0.01 to 0.5 mg/L (≈ 0.00569 to 0.284 µM) | MIC [9, 19]: 0.01 to 0.5 mg/L (≈ 0.00569 to 0.284 µM) | MIC [10, 20]: 2 to 4 mg/L (≈ 1.14 to 2.28 µM) | MIC [11, 21]: 1 to 2 mg/L (≈ 0.569 to 1.14 µM)

CCCCCCc1ccc(S(=O)(=O)NCCCCCCNC(=O)Oc2cc(O)c3c(c2)[C@@H](C(=O)O)NC(=O)[C@H]2NC(=O)[C@H](NC(=O)[C@@H]4NC(=O)[C@H](CC(N)=O)NC(=O)[C@H](NC(=O)[C@@H](CC(C)C)NC)[C@H](O)c5ccc(c(Cl)c5)Oc5cc4cc(c5O[C@@H]4O[C@H](CO)[C@@H](O)[C@H](O)[C@H]4O[C@H]4C[C@](C)(N)[C@H](O)[C@H](C)O4)Oc4ccc(cc4Cl)[C@H]2O)c2ccc(O)c-3c2)cc1 (atropisomer, axis not shown) [Compound 352]
MIC [1, 12]: 0.01 to 0.5 mg/L (≈ 0.00551 to 0.275 µM) | MIC [2, 13]: 0.01 to 0.5 mg/L (≈ 0.00551 to 0.275 µM) | MIC ([3]; Staphylococcus aureus, MRSA): 0.01 to 0.5 mg/L (≈ 0.00551 to 0.275 µM) | MIC [4, 14]: 0.01 to 0.5 mg/L (≈ 0.00551 to 0.275 µM) | MIC [5, 15]: 0.01 to 0.5 mg/L (≈ 0.00551 to 0.275 µM) | MIC [6, 16]: 2 to 4 mg/L (≈ 1.1 to 2.2 µM) | MIC [7, 17]: 0.01 to 0.5 mg/L (≈ 0.00551 to 0.275 µM) | MIC [8, 18]: 0.01 to 0.5 mg/L (≈ 0.00551 to 0.275 µM) | MIC [9, 19]: 0.01 to 0.5 mg/L (≈ 0.00551 to 0.275 µM) | MIC [10, 20]: 0.5 to 1 mg/L (≈ 0.275 to 0.551 µM) | MIC [11, 21]: 0.01 to 0.5 mg/L (≈ 0.00551 to 0.275 µM)

CCCCCCCC(C)NC(=O)Oc1cc(O)c2c(c1)[C@@H](C(=O)NC1C3CC4CC(C3)CC1C4)NC(=O)[C@H]1NC(=O)[C@H](NC(=O)[C@@H]3NC(=O)[C@H](CC(N)=O)NC(=O)[C@H](NC(=O)[C@@H](CC(C)C)NC)[C@H](O)c4ccc(c(Cl)c4)Oc4cc3cc(c4O[C@@H]3O[C@H](CO)[C@@H](O)[C@H](O)[C@H]3O[C@H]3C[C@](C)(N)[C@H](O)[C@H](C)O3)Oc3ccc(cc3Cl)[C@H]1O)c1ccc(O)c-2c1 (some centres unmarked) [Compound 312]
MIC [1, 12]: 0.5 to 1 mg/L (≈ 0.285 to 0.571 µM) | MIC [2, 13]: 0.01 to 0.5 mg/L (≈ 0.00571 to 0.285 µM) | MIC ([3]; Staphylococcus aureus, MRSA): 0.01 to 0.5 mg/L (≈ 0.00571 to 0.285 µM) | MIC [4, 14]: 0.01 to 0.5 mg/L (≈ 0.00571 to 0.285 µM) | MIC [5, 15]: 0.01 to 0.5 mg/L (≈ 0.00571 to 0.285 µM) | MIC [6, 16]: > 16 mg/L | MIC [7, 17]: 0.01 to 0.5 mg/L (≈ 0.00571 to 0.285 µM) | MIC [8, 18]: 0.01 to 0.5 mg/L (≈ 0.00571 to 0.285 µM) | MIC [9, 19]: 0.01 to 0.5 mg/L (≈ 0.00571 to 0.285 µM) | MIC [10, 20]: 0.5 to 1 mg/L (≈ 0.285 to 0.571 µM) | MIC [11, 21]: > 16 mg/L

CCCCCCc1ccc(S(=O)(=O)NCCCCCCNCc2c(O)cc3c(c2O)-c2cc(ccc2O)[C@H]2NC(=O)[C@@H]4NC(=O)[C@H](CC(N)=O)NC(=O)[C@H](NC(=O)[C@@H](CC(C)C)NC)[C@H](O)c5ccc(c(Cl)c5)Oc5cc4cc(c5O[C@@H]4O[C@H](CO)[C@@H](O)[C@H](O)[C@H]4O[C@H]4C[C@](C)(NC(=O)[C@@H](C)N)[C@H](O)[C@H](C)O4)Oc4ccc(cc4Cl)[C@@H](O)[C@H](NC2=O)C(=O)N[C@@H]3C(=O)O)cc1 (atropisomer, axis not shown) [Compound 342]
MIC ([1]; Staphylococcus epidermidis 835, class symbols, read-out: MIC SE 835): 0.01 to 0.5 mg/L (≈ 0.00534 to 0.267 µM) | MIC ([2]; ATCC29213, Staphylococcus aureus 100 (ATCC 29213), class symbols, read-out: MIC SA 100): 0.01 to 0.5 mg/L (≈ 0.00534 to 0.267 µM) | MIC ([3]; Staphylococcus aureus 757 (MRSA), class symbols): 0.01 to 0.5 mg/L (≈ 0.00534 to 0.267 µM) | MIC ([4]; ATCC29212, Enterococcus faecalis 101 (ATCC 29212), read-out: MIC E FC 101): 0.01 to 0.5 mg/L (≈ 0.00534 to 0.267 µM) | MIC ([5]; Enterococcus faecium 800, class symbols, read-out: MIC E FCM 800): 0.01 to 0.5 mg/L (≈ 0.00534 to 0.267 µM) | MIC ([6]; Enterococcus faecalis 848 (VRE, Van A), read-out: MIC E FC 848): 4 to 8 mg/L (≈ 2.14 to 4.27 µM) | MIC ([7]; Staphylococcus epidermidis 831 (MRSE), class symbols): 0.01 to 0.5 mg/L (≈ 0.00534 to 0.267 µM) | MIC ([8]; Streptococcus pyogenes 712, class symbols, read-out: MIC S PYO 712): 0.01 to 0.5 mg/L (≈ 0.00534 to 0.267 µM) | MIC ([9]; ATCC49619, Streptococcus pneumoniae 1195 (ATCC 49619), class symbols, read-out: MIC S PNE 1195): 0.01 to 0.5 mg/L (≈ 0.00534 to 0.267 µM) | MIC ([10]; Enterococcus faecium 752 (VRE, Van A), read-out: MIC E FCM 752): 0.5 to 1 mg/L (≈ 0.267 to 0.534 µM) | MIC ([11]; Staphylococcus aureus 2012 (VISA), read-out: MIC SA 2012): 0.01 to 0.5 mg/L (≈ 0.00534 to 0.267 µM)
